The record followed here is article PMC5790914, “QStatin, a Selective Inhibitor of Quorum Sensing in Vibrio Species” (mBio, 2018).

This experiment deals with T1, SmcR (Vibrio vulnificus, UniProt Q9L8G8).
T1 construct: purified SmcR (dimer); SeMet-substituted SmcR for the crystals
Put plainly: ITC (two-sequential binding model; second Kd =[…]) and […] Å crystal structure of the soaked complex.

Each structure is given as a SMILES string.

T1 sequence (Q9L8G8 entry or part of it): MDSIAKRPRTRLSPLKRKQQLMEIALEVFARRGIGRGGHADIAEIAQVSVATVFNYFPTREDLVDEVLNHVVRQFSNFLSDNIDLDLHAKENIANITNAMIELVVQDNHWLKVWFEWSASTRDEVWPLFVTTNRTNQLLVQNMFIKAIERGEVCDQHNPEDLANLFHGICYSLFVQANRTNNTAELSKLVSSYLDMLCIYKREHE

As for `O=S(=O)(c1ccc(Br)s1)n1cccn1` [377B6, 1-(5-bromothiophene-2-sulfonyl)-1H-pyrazole], the affinity, expressed as Kd, was 470 nM.
